Source: CN117771387A, “糖响应性复合物及其制备方法和应用” (priority 2022, dated 2024)

How the values were obtained:
AKT信号磷酸化 = assay: In vitro activity of Glu-insulin: AKT phosphorylation in HepG2 cells (western blot); assay type: cell-based; conditions: 10 min, 0-100nM
1型糖尿病小鼠 = assay: Blood glucose lowering by Glu-insulin in STZ-induced type 1 diabetic mice; assay type: in vivo, C57BL/6小鼠; conditions: s.c., insulin-equivalent dose 1.5mg/kg

With “Glu-insulin: Recombinant human insulin modified with gluconic acid at A1 (N-terminus of the α chain) [葡萄糖酸基胰岛素]” the “Activity on AKT phosphorylation compared with recombinant human insulin” value (AKT信号磷酸化) was “显示出与未修饰的重组人胰岛素相似的活性” and the “Blood glucose lowering effect compared with recombinant human insulin” value (1型糖尿病小鼠) was “仍有与重组人胰岛素类似的降糖效果”.
